Measurements published in US7049289B1, “Labelled glutamine and lysine analogues” (Amersham PLC, priority 1998, dated 2006).
Like-named read-outs stand apart in the source and are kept apart here.

Legend:
[1] = human, plasma, 2 h
Procedure: (§1) To a portion of compound (50 μl, 10 MBq/ml) was added an equal volume of plasma (rat or human) or saline. The mixtures were incubated at 37° C. and the stability measured by HPLC (system C) at 0, 30 and 120 minutes. The saline dilution acted as a control.

[2] = Incorporation into clots induced in a rat model (rat inferior vena cava model); type: in vivo, rat (Male Wistar); conditions: for % id/g (clot) / Rel. Conc. (cpm/g of clot by dose/g animal): sacrificed after 60 min
Method in brief: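 Male Wistar rats (250–350 g) under 15% urethane anaesthesia, with the vena cava isolated by laparotomy. Compounds given 5 min (fresh clot) or 60 min (aged clot) after clot induction; clot, blood, lung and heart removed 60 min later, weighed and counted. Uptake expressed as cpm/g clot per dose/g animal and as clot-to-background tissue ratio.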

[3] = molecular target: T1, fibrin (in vitro human plasma clot) (Homo sapiens, UniProt P02671+P02675+P02679); assay: Incorporation into human plasma clots in vitro; type: biochemical; conditions: for % specific uptake: % retained (with thrombin) - % retained (no thrombin); for % retained (no thrombin): control without thrombin and calcium chloride (non-specific binding); for % retained (with thrombin): human plasma clot, 60 minutes, ca. 20° C.
T1 construct: about 400 μl of human plasma containing the radiolabelled substrate; from tissue; host or cells: human plasma, clotted in vitro with added thrombin and calcium chloride
T1 sequence (P02671 20-644 isoform P02671-2 limits assumed): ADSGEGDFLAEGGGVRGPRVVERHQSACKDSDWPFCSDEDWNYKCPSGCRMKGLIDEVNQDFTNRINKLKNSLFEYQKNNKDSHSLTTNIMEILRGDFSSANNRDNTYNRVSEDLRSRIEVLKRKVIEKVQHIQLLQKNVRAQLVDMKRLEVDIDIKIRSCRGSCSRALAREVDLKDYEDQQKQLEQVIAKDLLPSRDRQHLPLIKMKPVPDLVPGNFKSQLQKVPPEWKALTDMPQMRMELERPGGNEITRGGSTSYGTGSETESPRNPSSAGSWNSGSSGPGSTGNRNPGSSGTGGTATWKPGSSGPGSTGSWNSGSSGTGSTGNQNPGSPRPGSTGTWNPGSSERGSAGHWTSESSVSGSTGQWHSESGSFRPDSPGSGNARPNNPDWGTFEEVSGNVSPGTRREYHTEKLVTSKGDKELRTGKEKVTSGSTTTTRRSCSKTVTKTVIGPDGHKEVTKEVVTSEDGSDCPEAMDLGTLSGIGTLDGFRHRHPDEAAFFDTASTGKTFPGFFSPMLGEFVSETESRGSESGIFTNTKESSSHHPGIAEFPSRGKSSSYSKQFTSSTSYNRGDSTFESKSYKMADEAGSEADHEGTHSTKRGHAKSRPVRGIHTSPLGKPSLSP
T1 sequence (P02675 45-491 limits assumed): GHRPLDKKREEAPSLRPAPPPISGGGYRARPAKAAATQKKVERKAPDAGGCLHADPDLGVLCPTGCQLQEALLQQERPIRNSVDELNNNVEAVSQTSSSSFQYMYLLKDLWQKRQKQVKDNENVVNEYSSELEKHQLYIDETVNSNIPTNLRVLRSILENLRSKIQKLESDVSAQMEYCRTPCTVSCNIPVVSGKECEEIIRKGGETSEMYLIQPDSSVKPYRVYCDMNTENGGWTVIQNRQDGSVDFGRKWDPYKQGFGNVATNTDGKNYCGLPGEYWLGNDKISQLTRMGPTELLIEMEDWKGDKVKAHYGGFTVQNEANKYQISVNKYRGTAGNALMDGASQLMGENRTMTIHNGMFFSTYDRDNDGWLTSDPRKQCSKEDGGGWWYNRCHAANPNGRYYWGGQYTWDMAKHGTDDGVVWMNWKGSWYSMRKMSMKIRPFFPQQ
T1 sequence (P02679 27-437 isoform P02679-2 limits assumed): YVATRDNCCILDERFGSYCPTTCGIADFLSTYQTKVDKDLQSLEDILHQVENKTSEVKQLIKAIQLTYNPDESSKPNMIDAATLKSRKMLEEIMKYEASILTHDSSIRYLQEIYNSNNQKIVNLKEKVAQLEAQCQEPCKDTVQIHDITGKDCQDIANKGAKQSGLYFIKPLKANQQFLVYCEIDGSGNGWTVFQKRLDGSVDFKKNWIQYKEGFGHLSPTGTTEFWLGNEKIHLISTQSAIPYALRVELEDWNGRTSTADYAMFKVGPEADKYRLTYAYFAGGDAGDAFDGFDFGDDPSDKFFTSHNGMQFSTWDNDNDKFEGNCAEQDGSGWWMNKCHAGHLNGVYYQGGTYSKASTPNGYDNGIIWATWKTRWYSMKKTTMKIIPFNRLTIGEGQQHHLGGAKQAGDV
Method in brief: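 Fibrin incorporation is expressed as the fraction of total radioactivity retained with filtered clots, corrected for non-specific binding in controls lacking thrombin and calcium chloride. Clotting was induced by thrombin in Ca2+-containing Tris-buffered saline (pH 7.5) with human plasma carrying about 10 kBq/ml tracer, for 60 min at ambient temperature before EDTA quench.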

[4] = rat, plasma, 2 h
Procedure: as §1

[5] = Aged Clots: injected 60 min post-induction
[6] = Fresh Clots: injected 5 min post-induction

| Substance | % intact at 120 mins [1] | Clot/blood ([2]; Aged Clots) | Clot/heart ([2]; Aged Clots) | Clot/liver ([2]; Aged Clots) | Clot/lung ([2]; Aged Clots) | % id/g (clot) [2, 5] | Rel. Conc. (cpm/g of clot by dose/g animal) [2, 5] | Clot/blood ([2]; Fresh Clots) | Clot/heart ([2]; Fresh Clots) | Clot/liver ([2]; Fresh Clots) | Clot/lung ([2]; Fresh Clots) | % id/g (clot) [2, 6] | Rel. Conc. (cpm/g of clot by dose/g animal) [2, 6] | % specific uptake [3] | % retained (no thrombin) [3] | % retained (with thrombin) [3] | % intact at 120 mins [4] | in vitro clot uptake (in words) [3] |
| --- | --- | --- | --- | --- | --- | --- | --- | --- | --- | --- | --- | --- | --- | --- | --- | --- | --- | --- |
| Ac-NQEAVSPYTLLKG-Pn44 (also: 99mTc complex) [^99mTc-Cmpd 12] | >90% | 19 | 75 | 7 | 15 | 4.1 ± 1.2 % id/g | 11.2 ± 3.4 | 20 | 31 | 8 | 17 | 7.3 ± 4.1 % id/g | 19.8 ± 11.0 | 34.5% | 0.3% | 34.8% | >90% | – |
| Ac-NQEQVG-Pn44 [^99mTc-Cmpd 17] | >90% | 3 | 7 | 3 | 5 | 0.8 ± 0.1 % id/g | 2.7 ± 0.6 | 7 | 18 | 5 | 12 | 1.2 ± 0.7 % id/g | 3.7 ± 2.3 | 40.6% | 0.7% | 41.3% | >90% | – |
| Ac-NQEQVSPYTLLKG-Hynic (also: 99mTc complex) [^99mTc-Cmpd 4] | >90% | 8 | 19 | 19 | 10 | 1.2 ± 1.1 % id/g | 4.1 ± 4.0 | 6 | 15 | 20 | 8 | 2.0 ± 0.6 % id/g | 6.5 ± 2.0 | 21.0% | 0.1% | 22.0% | >90% | – |
| Ac-NQG-Pn44 [^99mTc-Cmpd 16] | >90% | – | – | – | – | – | – | 3 | 8 | 0.8 | 3 | 0.3 ± 0.1 % id/g | 1.0 ± 0.2 | 12.4% | 0.1% | 12.5% | >90% | significant reduction in uptake |
| p-EAQIVG-Pn44 [^99mTc-Cmpd 46] | – | 4 | 5 | 1 | 3 | 0.5 ± 0.2 % id/g | 1.3 ± 0.6 | 5 | 6 | 1 | 3 | 0.8 ± 0.4 % id/g | 2.0 ± 0.7 | 6.1% | 0.2% | 6.3% | – | significant reduction in uptake |
